As usually defined, the IC50 is the concentration that inhibits the measured activity by half. A lower IC50 goes with inhibition by little substance.

This note sets out measurements from US7183277B2, “Carboxylic acid amides” (Merck Patent GmbH, priority 2002, dated 2007).

Assay [1] concerns the target FXa (Homo sapiens, UniProt P00742). Description: Factor Xa inhibition (FXa-IC50). Format: biochemical. The source says: The inhibition of factor Xa by the compounds according to the invention and the measurement of the anticoagulant and antithrombotic activity can be determined by conventional in-vitro or in-vivo methods. A suitable method is described, for example, by J. Hauptmann et al. in Thrombosis and Haemostasis 1990, 63, 220–223.
The inhibition of factor Xa can be measured, for example, by the method of T. Hara et al. in Thromb. Haemostas. 1994, 71, 314–319.

Assay [2] concerns the target TF/FVIIa (Homo sapiens, UniProt P08709). Nature of the assay: TF/FVIIa inhibition (TF/FVIIa-IC50). The class given is biochemical. The source says:
The inhibition of factor VIIa by the compounds according to the invention and the measurement of the anticoagulant and antithrombotic activity can be determined by conventional in-vitro or in-vivo methods. A conventional method for the measurement of the inhibition of factor VIIa is described, for example, by H. F. Ronning et al. in Thrombosis Research 1996, 84, 73–81.

Each structure is given as a SMILES string. Structures can show the parent of a compound that is named as a salt.

Chain of TF/FVIIa (P08709 213-466 limits assumed): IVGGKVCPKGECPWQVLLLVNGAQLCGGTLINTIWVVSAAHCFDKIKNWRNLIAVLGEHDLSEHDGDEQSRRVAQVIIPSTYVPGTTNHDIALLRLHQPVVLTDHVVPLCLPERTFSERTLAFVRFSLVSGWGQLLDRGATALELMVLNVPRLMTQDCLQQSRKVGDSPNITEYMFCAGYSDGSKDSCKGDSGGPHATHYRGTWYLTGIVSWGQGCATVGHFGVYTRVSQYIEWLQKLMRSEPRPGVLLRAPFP
Chain of TF/FVIIa (P08709 61-212 partner limits assumed): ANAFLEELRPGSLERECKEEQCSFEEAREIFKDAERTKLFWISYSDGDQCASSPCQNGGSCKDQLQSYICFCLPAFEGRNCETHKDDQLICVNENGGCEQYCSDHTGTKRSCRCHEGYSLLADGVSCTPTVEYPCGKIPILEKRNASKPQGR
Chain of TF/FVIIa (P13726 33-295 partner): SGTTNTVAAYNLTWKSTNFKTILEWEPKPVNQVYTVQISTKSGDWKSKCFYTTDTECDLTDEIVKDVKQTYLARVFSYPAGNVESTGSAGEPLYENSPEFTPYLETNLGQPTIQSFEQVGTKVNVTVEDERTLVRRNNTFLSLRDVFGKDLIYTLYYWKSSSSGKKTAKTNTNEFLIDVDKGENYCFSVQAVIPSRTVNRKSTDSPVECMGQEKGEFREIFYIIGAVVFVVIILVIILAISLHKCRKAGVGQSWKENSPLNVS
Chain of FXa (P00742 235-488 limits assumed): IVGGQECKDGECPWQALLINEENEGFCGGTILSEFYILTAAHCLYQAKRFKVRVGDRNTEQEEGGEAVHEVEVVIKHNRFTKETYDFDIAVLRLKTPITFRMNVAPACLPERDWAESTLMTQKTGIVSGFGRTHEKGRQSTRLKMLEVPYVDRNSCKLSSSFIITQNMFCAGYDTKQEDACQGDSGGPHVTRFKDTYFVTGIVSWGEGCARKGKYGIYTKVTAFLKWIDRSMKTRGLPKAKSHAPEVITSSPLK
Chain of FXa (P00742 41-179 partner limits assumed): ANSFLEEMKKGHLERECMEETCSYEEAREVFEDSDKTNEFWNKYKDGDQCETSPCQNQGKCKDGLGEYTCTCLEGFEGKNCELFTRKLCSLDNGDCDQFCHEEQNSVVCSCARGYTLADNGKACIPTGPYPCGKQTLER

For the molecule `CON=C1CCCCN1c1ccc(NC(=O)[C@H](OC(=O)Nc2ccc(Cl)cc2)c2ccccc2)cc1` [AA, (R)-2-[N-(4-chlorophenyl)carbamoyloxy]-N-[4-(2-methoxyiminopiperidin-1-yl)phenyl]-2-phenylacetamide], the IC50 in assay [1] came out at 220 nM; in assay [2] it was 290 nM. `N=C1CCCCN1c1ccc(NC(=O)[C@H](OC(=O)Nc2ccc(Cl)cc2)c2ccccc2)cc1` [AB, (R)-2-[N-(4-chlorophenyl)carbamoyloxy]-N-[4-(2-iminopiperidin-1-yl)phenyl]-2-phenylacetamid, hydrochloride]: the 50% inhibitory concentration (IC50) in assay [1] worked out at 58 nM; in assay [2], 99 nM.

With `Cc1cc(NC(=O)[C@H](NC(=O)Nc2ccc(Cl)cc2)c2ccccc2)ccc1N1CCCC1=N` [BA, (R)-2-[3-(4-chlorophenyl)ureido]-N-[4-(2-iminopyrrolidin-1-yl)-3-methylphenyl]-2-phenylacetamide, hydrochloride], the 50% inhibitory concentration (IC50) in assay [1] stood at 680 nM; in assay [2], 490 nM.

Turning to `N#CN=C1NCCN1c1ccc(NC(=O)[C@@H](NC(=O)Nc2ccc(Cl)cc2)c2cccs2)cc1` [CA, (R)-2-[3-(4-chlorophenyl)ureido]-N-[4-(2-cyaniminoimidazolidin-1-yl)phenyl]-2-thiophen-2-ylacetamide], in assay [1], the 50% inhibitory concentration (IC50) was 54 nM. This counts as double-digit nanomolar.
